Data taken from patent publication US3995044A, “Pyridine carboxylic acid amides for mycobacterium infections” (priority 1974, dated 1976).
In brackets after ≈: the same amount, converted by molar mass. Where two headings read alike, the source gives them in different places.

Key:
Assay in all cases: microbe, parasite or virus in culture
Assay type in all cases: cell-based
[1] = tested on: Mycobacterium tuberculosis CS-res.; conditions: read-out: MIC, CS-res.
[2] = tested on: Mycobacterium tuberculosis PAS-res.; conditions: read-out: MIC, PAS-res.
[3] = tested on: Mycobacterium tuberculosis INH TSC ETH-res.; conditions: read-out: MIC, INH TSC ETH-res.
[4] = tested on: Mycobacterium tuberculosis SM-res.; conditions: read-out: MIC, SM-res.
[5] = tested on: Mycobacterium tuberculosis INH-res.; conditions: read-out: Minimum inhibitory concentration (on egg medium), resistant test strain INH-res.
[6] = tested on: Mycobacterium tuberculosis INH-TSC-res.; conditions: read-out: Minimum inhibitory concentration (on egg medium), resistant test strain INH-TSC-res.
[7] = tested on: Mycobacterium tuberculosis INH-res.; conditions: read-out: MIC, INH-res.

| SMILES | MIC [1] [µg/mL] | MIC [2] [µg/mL] | MIC [3] [µg/mL] | MIC [4] [µg/mL] | MIC [5] [µg/mL] | MIC [6] [µg/mL] | MIC [7] [µg/mL] |
| --- | --- | --- | --- | --- | --- | --- | --- |
| O=C(NCc1ccccn1)c1cc([N+](=O)[O-])cc([N+](=O)[O-])c1 [Example 1, N-(pyrid-2-ylmethyl)-3,5-dinitrobenzoic acid amide] | 1.6 (≈ 5.29 µM) | 1.6 (≈ 5.29 µM) | 0.8 (≈ 2.65 µM) | 1.6 (≈ 5.29 µM) | 1 (≈ 3.31 µM) | 1 (≈ 3.31 µM) | 0.8 (≈ 2.65 µM) |
| O=C(NCc1cnc2ccccc2c1)c1cc([N+](=O)[O-])cc([N+](=O)[O-])c1 [Example 9] | 0.2 (≈ 0.568 µM) | 0.4 (≈ 1.14 µM) | 0.03 (≈ 0.0852 µM) | 0.2 (≈ 0.568 µM) | 2 (≈ 5.68 µM) | 2 (≈ 5.68 µM) | 0.4 (≈ 1.14 µM) |
| O=C(NCCc1ccccn1)c1cc([N+](=O)[O-])cc([N+](=O)[O-])c1 [Example 10] | – | – | – | – | 1 (≈ 3.16 µM) | 32 (≈ 101 µM) | – |
| O=C(NCc1cccnc1)c1cc([N+](=O)[O-])cc([N+](=O)[O-])c1 [Example 12] | – | – | – | – | 8 (≈ 26.5 µM) | 32 (≈ 106 µM) | – |
| O=C(NCc1ccncc1)c1cc([N+](=O)[O-])cc([N+](=O)[O-])c1 [Example 13] | – | – | – | – | 128 (≈ 423 µM) | 128 (≈ 423 µM) | – |
| Cc1cccc(CNC(=O)c2cc([N+](=O)[O-])cc([N+](=O)[O-])c2)n1 [Example 14] | 1.6 (≈ 5.06 µM) | 1.6 (≈ 5.06 µM) | 0.8 (≈ 2.53 µM) | 1.6 (≈ 5.06 µM) | – | – | 0.8 (≈ 2.53 µM) |
| O=C(NCc1ccc2ccccc2n1)c1cc([N+](=O)[O-])cc([N+](=O)[O-])c1 [Example 15] | 0.2 (≈ 0.568 µM) | 0.4 (≈ 1.14 µM) | 0.05 (≈ 0.142 µM) | 0.1 (≈ 0.284 µM) | 1 (≈ 2.84 µM) | 1 (≈ 2.84 µM) | 0.1 (≈ 0.284 µM) |
| O=C(NCC1CCCO1)c1cc([N+](=O)[O-])cc([N+](=O)[O-])c1 (stereo not shown) [Example 20] | 1.6 (≈ 5.42 µM) | 1.6 (≈ 5.42 µM) | 1.6 (≈ 5.42 µM) | 1.6 (≈ 5.42 µM) | – | – | 1.6 (≈ 5.42 µM) |
| O=C(NCC1CCC=CO1)c1cc([N+](=O)[O-])cc([N+](=O)[O-])c1 (stereo not shown) [Example 22] | 0.4 (≈ 1.3 µM) | 0.8 (≈ 2.6 µM) | 0.2 (≈ 0.651 µM) | 0.4 (≈ 1.3 µM) | – | – | 0.1 (≈ 0.325 µM) |
| CC(NC(=O)c1cc([N+](=O)[O-])cc([N+](=O)[O-])c1)c1ccccn1 (stereo not shown) [Example 29] | 1.6 (≈ 5.06 µM) | 1.6 (≈ 5.06 µM) | 0.8 (≈ 2.53 µM) | 0.8 (≈ 2.53 µM) | 2 (≈ 6.32 µM) | 2 (≈ 6.32 µM) | 1.6 (≈ 5.06 µM) |
